# Source: patent publication US8895610B1, “Platinum (IV) compounds targeting zinc finger domains” (priority 2007, dated 2014)
# Where “and” joins values, the source holds several entries; their conditions need not be identical. Equal entries are not always repeated. Entries after “also recorded” stand apart in the source; their conditions may differ.
# Columns and labels:
# M2 strain of FIV = assay: Second FIV cat study, plasma viremia (five treated, three control cats); assay type: in vivo, domestic cat; settings: after 6 intravenous doses of 3 mg/kg over four weeks, controls showed active viremia
# Source text: Eight specific-pathogen-free domestic female cats infected >2 years with the M2 strain of FIV were used in another study. Cats were housed individually in a climatized animal facility in accordance with standards, had ad libitum access to fresh water and food, and were sedated with Tiletamine/Zolazepam intramuscularly prior to any procedure. The animals were divided into two groups, with five receiving FX101 in 10% DMSO/saline (treated) and three receiving only 10% DMSO/saline (control). Prior to initiation of the treatment and at scheduled times, samples were collected for hematological and virological analyses. The cats received 6 intravenous doses of 3 mg/kg FX101 over four weeks. Cats were matched by birthdates and infection dates with similar viral blood plasma viremia levels at the onset of the study. […] Current antretrovirals are required on a daily basis; the efficacy of six doses of treatment over four weeks supports a distinct mechanism from the nucleotide/non-nucleotide reverse transcriptase, protease and infectivity inhibitors. Efficacy extends across diverse strains of FIV, in agreement with alterations by platinum(IV) compounds to the zinc-binding nucleocapsid domain being therapeutically targeted. It is anticipated that cotherapies targeting multiple mechanisms may eventually provide viral clearance for an infected host.
# Petaluma strain of FIV = assay: Plasma viremia by reverse transcription TaqMan PCR in FIV-infected cats; assay type: in vivo, domestic cat; settings: for Plasma Viremia: cats BR, CF
# Source text: (§1) Currently available antiretrovirals require daily dosing, often in combination therapy. Two 12^+-year old specific-pathogen-free domestic female cats infected >5 years with the Petaluma strain of FIV were used in this study. The animals were housed individually in a climatized animal facility in accordance with standards, had ad libitum access to fresh water and food, and were sedated with Tiletamine/Zolazepam intramuscularly prior to any procedure. The cats weighed from 3-5 kg each. Three weeks before initiation of the treatment and at scheduled times, samples were collected for hematological and virological analyses. The cats received 9 intravenous doses of 3 mg/kg FX101 over 4.5 weeks (2× weekly).
# Viral RNA extracted from plasma using the QIAmp viral RNA kit (QIAGEN), was reverse transcribed and amplified by reverse transcription TaqMan PCR. Reverse transcription and amplification conditions, and minimum detection limits of the assay (100-200 copies/mL plasma) are described elsewhere (Pistello, 2005). This measure represents viral presence in circulation, reflecting potential infectivity and productive synthesis of viral particles.
# (§2) 0.1664 g FX101 was dissolved into 30 mL 15% DMSO/PBS and stirred overnight. This solution was sterile-filtered using a 20-mL syringe fitted with a […] Sarstedt filter. Each dose was administered under anesthesia, a 1.5 mL venous injection using a 2.5 mL syringe fitted with a 22G 1¼-in. needle (latex free). Feline BR weighed 3.2 kg at the start of the experiment and CF weighed 2.8 kg. Each received 8.3 mg drug with each dose, so dosages were 2.6 mg/kg for BR and 3.0 mg/kg for CF.
# Table 8 illustrates measures of plasma viremia from the two test cats, “BR” and […] relative to the treatment period, receiving intravenous injections of FX101 twice weekly over four weeks. Each blood sample was taken immediately prior to drug injection for the scheduled dosing, August 23-September 30. This provided two pretreatment samples as baseline measures, 3 samples during treatment, and two post-treatment samples; note the addition of an unscheduled sample October 20. […] Following the last dosage, the first post-treatment results were ambiguous, with one cat experiencing a strong rebound and the other remaining below detection. This difference may be attributable to a uterine infection experienced by cat “BR” at this time—a historically frequent occurrence for this cat. It is well known that lipopolysaccharides (LPS) induce lentiviral replication, and this may therefore be related.
# [1] = test system: Petaluma strain of FIV (proviral DNA in PBMC); assay: Proviral load in peripheral blood mononuclear cells by TM-PCR; assay type: in vivo, domestic cat; settings: for Proviral Load in PBMC: cats BR, CF
# Source text: as §1
# Genomic DNA was extracted from the PBMC using the QIAamp DNA Blood Mini kit (QIAGEN). Proviral DNA was quantified from 0.4 ug genomic DNA by TM-PCR under the same conditions used for cDNA amplification except that the reaction mixture volume was 25 ul (n=3). The sensitivity of the assay was 100 copies/ug genomic DNA (Pistello, 2005). Proviral load varied over the course of treatment, but measured much lower than baseline pretreatment measures both 6 and 9 months later (27 and 38 weeks, respectively). This measure reflects viral integration into the host PBMCs, primed for production of viral particles with commencement of transcription. […] This is indicative of viral clearance and immune recovery, including apoptotic elimination of virally-infected cells. Viral reservoirs, such as those of macrophages and monocytes, have prevented eradication of lentiviruses (Nicastri, 2008).
# as §2
# [2] = Clinical observations, clinical chemistry, CBC and urinalysis in FIV cat studies; assay type: in vivo; settings: 9 intravenous doses of 3 mg/kg over 4.5 weeks; two FIV-infected cats
# Source text: as §1
# p24 Gag protein = assay: Western blot of p24 Gag protein, pNL4-3-transfected HeLa cells and viral progeny; assay type: cell-based, HIV-1; settings: increasing concentration
# Source text: In vitro, this process occurs in the presence of nucleic acids and a cofactor (Campbell, 1999; Campbell, 2001). Immature particles fail to consolidate an outer membrane, emphasizing the critical role of Gag proteins in the assembly process (Didierlaurent, 2008). As virions bud from the host membrane, viral protease cleaves p55 Gag into its final mature components: matrix (p17), capsid (p24), nucleocapsid (p7) and p6, each designated by its apparent molecular weight. […] Effects may extend across the Gag polyprotein and its components, further compounding activities.
# [3] = Aug. 23, 2007 start of treatment period, blood collected prior to dosing
# [4] = Jun. 12, 2008 (+38 wk) post treatment
# [5] = Mar. 27, 2008 (+27 wk) post treatment
# [6] = Oct. 20, 2007 (+4 wk) post treatment
smiles,measurement,setting,value
"[NH2][Pt]([NH2])([Cl])([Cl])([Cl])[N+](=O)[O-] [FX101, nitrotrichlorodiamminoPt(IV)]",plasma viremia levels,M2 strain of FIV,below the detection limit of the assay
same,plasma viremia after treatment (in words),"Petaluma strain of FIV; 4 weeks to 9 months past the final dosage, no additional therapies",significantly lower viremia as compared with baseline measures; also recorded: undetectable plasma viremia
same,Plasma Viremia,"Petaluma strain of FIV; Aug. 2, 2007 pretreatment",2582 Viral RNA Copies/mL Plasma and 4282 Viral RNA Copies/mL Plasma
same,Plasma Viremia,Petaluma strain of FIV; [3],8841 Viral RNA Copies/mL Plasma and 6974 Viral RNA Copies/mL Plasma
same,Plasma Viremia,"Petaluma strain of FIV; Aug. 30, 2007 treatment period, i.v. twice weekly",1300 Viral RNA Copies/mL Plasma and 1249 Viral RNA Copies/mL Plasma
same,Plasma Viremia,"Petaluma strain of FIV; Feb. 1, 2006 pretreatment",6557 Viral RNA Copies/mL Plasma and 3864 Viral RNA Copies/mL Plasma
same,Plasma Viremia,Petaluma strain of FIV; [4],<200 Viral RNA Copies/mL Plasma
same,Plasma Viremia,"Petaluma strain of FIV; Mar. 1, 2006 pretreatment",3072 Viral RNA Copies/mL Plasma and 2819 Viral RNA Copies/mL Plasma
same,Plasma Viremia,Petaluma strain of FIV; [5],<200 Viral RNA Copies/mL Plasma
same,Plasma Viremia,Petaluma strain of FIV; [6],898 Viral RNA Copies/mL Plasma and 1057 Viral RNA Copies/mL Plasma
same,Plasma Viremia,"Petaluma strain of FIV; Sep. 4, 2007 treatment period, i.v. twice weekly",<100 Viral RNA Copies/mL Plasma
same,Plasma Viremia,"Petaluma strain of FIV; Sep. 20, 2007 treatment period, i.v. twice weekly",<100 Viral RNA Copies/mL Plasma
same,plasma viremia during treatment (in words),"Petaluma strain of FIV; both cats, over two weeks of twice weekly i.v. injections",significant reduction in plasma viremia
same,PBMC proviral load immediately following final dosing (in words),"[1]; 14 days after the final dosing, both animals",short increase
same,Proviral Load in PBMC,[1]; [3],4472 proviral DNA copies/ug genomic DNA and 6867 proviral DNA copies/ug genomic DNA
same,Proviral Load in PBMC,"[1]; Aug. 30, 2007 treatment period",5803 proviral DNA copies/ug genomic DNA and 6476 proviral DNA copies/ug genomic DNA
same,Proviral Load in PBMC,[1]; [4],1747 proviral DNA copies/ug genomic DNA and 1350 proviral DNA copies/ug genomic DNA
same,Proviral Load in PBMC,[1]; [5],1250 proviral DNA copies/ug genomic DNA and 1000 proviral DNA copies/ug genomic DNA
same,Proviral Load in PBMC,"[1]; Oct. 4, 2007 (+2 wk) post treatment",14500 proviral DNA copies/ug genomic DNA and 14724 proviral DNA copies/ug genomic DNA
same,Proviral Load in PBMC,[1]; [6],4211 proviral DNA copies/ug genomic DNA and 2790 proviral DNA copies/ug genomic DNA
same,Proviral Load in PBMC,"[1]; Sep. 20, 2007 treatment period",4152 proviral DNA copies/ug genomic DNA and 4660 proviral DNA copies/ug genomic DNA
same,proviral loads over subsequent months (in words),"[1]; months after treatment, vs pretreatment baseline","declined over subsequent months, even below pretreatment baseline measures"
same,local reactions or adverse clinical indicators,[2],No local reactions or adverse clinical indicators
same,mature p24 content in host cells and viral progeny (Western blot),p24 Gag protein,absence of mature p24
